# Measured values: patent publication US20230302104A1, “TREATMENT AND/OR PREVENTION OF A DISEASE OR A SYNDROME RELATED TO A VIRUS INFECTION” (priority 2020, published 2023)
# Assays:
# [1] = tested on: SARS-CoV-2 spike pseudovirus entry in ACE2 overexpressing A549 human lung alveolar basal epithelium cells; assay type: cell-based
# [2] = tested on: SARS-CoV-2 spike pseudotyped lentivirus entry in HeLa cells overexpressing TMPRSS2; assay type: cell-based; details: 10 µM
Substance,SARS-CoV-2 pseudovirus entry [1],effect on SARS-CoV-2 pseudoviral entry in combination with IFN-beta-1a [1],inhibitory effect on SARS-CoV-2 pseudoviral cell-entry [2]
rhAAT,inhibits viral entry of several viruses,–,–
plasma derived AAT,–,additive inhibitory effect,no inhibitory effect
